In patent US20060247420A1, “Immune cell recptor ligand and immune cell receptor” (priority 2002, published 2006):

Assays:
[1] = tested on: Letal mRNA in A2008 ovarian carcinoma cell line; experiment: Letal mRNA expression in treated A2008 cells, real-time quantitative RT-PCR (TaqMan); type: cell-based, human
Experimental: Quantification of Letal by real-time quantitative RT-PCR. Letal expression was analyzed by TaqMan analysis as previously described (Garcia et al, FASEB J 15(10):1819-1821 (2001)). The Letal system consisted of the primers: Letal.F, 5′-[…]-3′ (SEQ ID NO:13); Letal.R, 5′-[…]-3′ (SEQ ID NO:14), and the probe Letal.P, 5′-(FAM)[…] (SEQ ID NO:15) (TAMRA)-3′. The cDNA load was normalized to human GAPDH with primers GAPDH F: 5′-[…]-3′ (SEQ ID NO:16) and GAPDH R: 5′[…]-3′ (SEQ ID NO:17) and the probe GAPDH.P: 5′(FAM) […] (TAMRA)-3′ (SEQ ID NO:18).
Tissues, cell lines and purification of cells. Normal human tissues were obtained from the Cooperative Human Tissue Network (Zhang et al, N. Engl. J. Med. 348(3):203-213 (2003)). A2008 ovarian carcinoma cell line was treated for 24 h with serum-free medium (control) or serum-free medium containing either 10 U/ml interleukin (IL)-1β, 10 ng/ml tumor necrosis factor (TNF-α), 40 ng/ml interferon (IFNγ), 0.5 μg/ml Lypopolyssaccaride (LPS), or 10 ng/ml TNF-α plus 40 ng/ml IFN-γ. 10 ng/ml PMA was kept for 4 hs and retinoic acid for 24, 48, and 72 hs. All the cytokines were from Peprotech (Rocky Hill, N.J.), except retinoic acid (Sigma, St Louis, Mo.). Additionally, cells were cultured in media without glucose for 48 hs or under hypoxia (1.5% O2) for 16 hs. Fresh peripheral blood lymphocytes were obtained by leukapheresis and elutriation. […]

[2] = tested on: NKG2D on peripheral CD8^+ T-cells; experiment: NKG2D expression on CD8+ lymphocytes after co-culture with K32 aAPCs, flow cytometry; type: cell-based, human; details: peripheral CD8^+ T-cells co-cultured 4 days with K32 aAPCs; versus mock-transduced K32
Source text: (§1) CD8^+ lymphocyte stimulation and cytokine release. To analyze the effects of Letal on the T-cell proliferation and production of cytokines, a previously described artificial antigen-presenting cell (aAPC) model was used (Maus et al, Nat. Biotechnol. 20(2):143-148 (2002)). Briefly, the system is based on the stable expression of the human low-affinity Fcγ receptor, CD32, on K562 cells (K32 cell line). K32 cell-based aAPCs were additionally transduced with Letal or with the empty vector as described above, irradiated with 100Gy, and washed twice with RPMI medium. Letal^+-K32 cells or mock transductants were loaded, when indicated, with anti-CD3 (OKT3), or anti-CD3 plus anti-CD28 (mAbs; 9.3) monoclonal antibodies at 0.5 μg/ml for 10 min at room temperature. Loaded &APCs were mixed with CD8^+ T-cells at a 1:2 ratio and the T-cell concentration was maintained at 0.5×10^6 cells/ml throughout the culture. Cultures were pulsed with 1 μCi of [^3H] thymidine from day 2 to day 5 and incorporated radioactivity was determined using a 1450 Microbeta scintillation counter (Wallac, Turku, Finland). The amounts of secreted IL-2 and IFNγ were determined by commercial ELISA, following the manufacturer's instructions (R & D Systems). Flow cytometry was performed with a FACScalibur (BD Biosciences, San Jose, Calif.). […]

[3] = tested on: peripheral CD8^+ T-cells; experiment: CD8+ lymphocyte proliferation/expansion with K32 aAPCs ([3H] thymidine); type: cell-based, human; details: day 5; three independent experiments
Source text: as §1

[4] = tested on: glucose transporter Glut-1 in peripheral CD8^+ T-cells; experiment: Glut-1 expression in stimulated CD8+ T-cells, flow cytometry; type: cell-based, human; details: 20 hr stimulation
Source text: CD8^+ lymphocyte stimulation, cytokine release and glucose metabolism analysis. To analyze the effects of Letal on the T-cell proliferation and production of cytokines, a previously described artificial antigen-presenting cell (aAPC) model was used (Maus et al, Nat. Biotechnol. 20:143-148 (2002)). Briefly, the system is based on the stable expression of the human low-affinity Fcγ receptor, CD32, on K562 cells (K32 cell line). K32 cell-based aAPCs were additionally transduced with Letal or with the empty vector as described above, irradiated with 100Gy, and washed twice with RPMI medium. […] Cultures were pulsed with 1 μCi of [^3H] thymidine from day 2 to day 5 and incorporated radioactivity was determined using a 1450 Microbeta scintillation counter (Wallac, Turku, Finland). The amounts of secreted IL-2 and IFN-γ were determined by commercial ELISA, following the manufacturer's instructions (R & D Systems). […]
Letal signaling increases glucose transporter expression and glucose uptake during T-cell activation. […] To test whether Letal may have a similar effect during T-cell activation, peripheral CD8^+ T-cells were stimulated for 20 hr with anti-CD3, anti-CD3/anti-CD28, anti-CD3/Letal, or Letal alone and the expression of the glucose transporter Glut-1 was analyzed by flow cytometry. […]

[5] = tested on: peripheral CD8^+ T-cells; experiment: Glucose uptake with [3H]-2-deoxyglucose in stimulated CD8+ T-cells; type: cell-based, human; details: 20 hr stimulation
Source text: as §1, with “stimulation, cytokine release” for “stimulation”, “glucose metabolism analysis.” for “cytokine release.”, “20:143-148” for “20(2):143-148”, “aAPCs” for “&APCs”, “IFN-γ” for “IFNγ”, “Systems).” for “Systems). Flow cytometry was performed with a FACScalibur (BD Biosciences, San Jose, Calif.).”
Glucose uptake rates were next measured with [^3H]-2-deoxyglucose in cells stimulated as described above. […]

[6] = tested on: peripheral CD8^+ T-cells; experiment: Cisplatin-induced apoptosis of pre-stimulated CD8+ lymphocytes, annexin-V; type: cell-based, human; details: pre-stimulated 3 days; 50 μM cisplatin for 17 hr
Experimental: (§2) Apoptosis assay. The percentage of apoptotic cells was determined after 17 h incubation with 50 μM cisplatin or 18 hs exposure to 0.1 μg/ml anti-CD95 mAb (EOS9.1; Pharmingen) by using the TACS annexin-V apoptosis detection kit, according to the manufacturer's instructions (R & D Systems). Fas expression was determined by flow cytometry by using EOS9.1 as a primary Ab and a PE-labeled anti-mouse IgM (R6-60.2; Pharmingen) as a second Ab.
Cytotoxic chemotherapy can, however, deplete tumor-specific effector T-cells (Lee et al, Nat. Med. 5:677-685 (1999)). Because the glycolytic pathway is implicated in lymphocyte survival (Plas et al, Nat. Immunol. 3:515-521 (2002)), a determination was made as to whether Letal could protect T-cells from early apoptotic death induced by genotoxic drugs.

[7] = tested on: Fas on peripheral CD8^+ T-cells; experiment: Fas expression on stimulated CD8+ T-cells, flow cytometry; type: cell-based, human; details: 4 days stimulation; compared to CD3/CD28 costimulated T-cells
Experimental: as §2
Letal engagement protects CD8^+ T-cells from FasL-induced apoptosis. […] Because ovarian carcinomas express FasL and other lymphocyte-depleting death ligands (Rabinowich et al, J. Clin. Invest. 101:2579-2588 (1998)), the prevalence of FasL expression and its impact on TILs was determined in 42 stage III ovarian carcinoma specimens. Strong FasL immunoreactivity was detected in tumor cells in areas of selected specimens (FIG. 10A), as well as in a proportion of stromal leukocytes. To test whether Letal promotes the generation of activated T-cell subpopulations that are able to resist the pro-apoptotic tumor microenvironment, peripheral CD8^+ T-cells were stimulated for 4 days with CD3/Letal, CD3/CD28, or anti-CD3 alone, and expression of Fas was measured by flow cytometry. […]

[8] = biological target: T1, Lymphocyte Effector cell Toxicity Activating Ligand (Letal) (human, UniProt Q8TD07 29-263); experiment: flow cytometry, 3 µg/ml NKG2D/Fc on Letal-transduced K562 and SKOV3 cells, detected with anti-human IgG mAb
T1 construct: Expressed from the complete open reading frame by retroviral transduction on K562 and SKOV3 cells; also called ULBP4; RAET1E
T1 sequence: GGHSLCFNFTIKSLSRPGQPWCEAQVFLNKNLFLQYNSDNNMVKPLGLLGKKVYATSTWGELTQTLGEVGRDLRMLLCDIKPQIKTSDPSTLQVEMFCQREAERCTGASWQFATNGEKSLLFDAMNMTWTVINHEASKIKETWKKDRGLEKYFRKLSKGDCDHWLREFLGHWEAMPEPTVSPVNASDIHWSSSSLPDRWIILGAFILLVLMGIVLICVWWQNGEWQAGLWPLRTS
Source text: Constructs and generation of antibodies. SKOV3 and K562 cells were transduced using retroviral vector MIGR1, generously provided by Warren Pear (University of Pennsylvania). Letal or mock transductants expressing equivalent levels of the green fluorescent protein were sorted and cultured by standard procedures. […] Anti-human IgG mAb (G18-145; Pharmingen, San Diego, Calif.) was used to detect the chimerical molecule.
Letal is a ligand of NKG2D expressed in a variety of normal tissues. […] Expression of the Letal protein was confirmed on transduced cells, but not on mocked transductants, by flow cytometry using serum of Letal-immunized mice (FIG. 1D). […] To evaluate the binding of NKG2D to transduced Letal, a recombinant soluble NKG2D-Fc fusion protein was used, containing the ectodomain of the immunoreceptor (Phe78 through Val216). […] Treatment with phospholipase C decreased binding of sNKG2D to Letal⁺ K562 cells, although binding was higher than to control cells.

For CC1=C(/C=C/C(C)=C/C=C/C(C)=C/C(=O)O)C(C)(C)CCC1 [retinoic acid], which “decrease of Letal mRNA expression” value ([1]; maximum, after 72 hr stimulation) is on record?
The value was 6 fold.

How did the “increase of basal Letal mRNA levels” value ([1]; TNF-α 10 ng/ml, 24 h) turn out when TNF-α was run?
Its value is 3 fold.

For “anti-CD3: anti-CD3 (OKT3) monoclonal antibody loaded on Letal^− K32 aAPCs [reference compound]”, which “increase of NKG2D expression” value [2] is on record?
The value was “same result than CD3/Letal stimulation”.

What about the “fewer CD8^+ cells with CD3 stimulation in the absence of Letal” value [3] of the same molecule?
Its value is 29%.

What about the “cells with altered Glut-1 expression” value [4] of the same molecule?
Its value is 11%.

And the glucose uptake rate [5]?
Its glucose uptake rate is “little to no effect”.

What about the apoptosis after cisplatin [6] of the same molecule?
The apoptosis after cisplatin was “higher percentage of apoptotic cells”.

What about the Fas expression [7] of the same molecule?
The Fas expression was “markedly higher”.

B1: recombinant human NKG2D/Fc chimera (R & D Systems) (Fc fusion, UniProt P26718 78-216, looked up)
chain: FLNSLFNQEVQIPLTESYCGPCPKNWICYKNNCYQFFDESKNWYESQASCMSQNASLLKVYSKEDQDLLKLVKSYHWMGLVHIPTNGSWQWEDGSILSPNLLTIIEMQKGDCALYASSFKGYIENCSTPNTYICMQRTV
notes: range 78-216; Bought reagent; also called NKG2D-Fc protein; recombinant soluble NKG2D-Fc fusion protein; Fc part of the bought chimera not given, detected with anti-human IgG mAb
Does B1 bind [8]?
Result: binds
